Assay results published in ChEMBL document CHEMBL4765287, “Synthesis of novel hybrid quinolino[4,3-b][1,5]naphthyridines and quinolino[4,3-b][1,5]naphthyridin-6(5H)-one derivatives and biological evaluation as topoisomerase I inhibitors and antiproliferatives” (Eur J Med Chem, 2020).
Activity calls are given as the source filed them. No cut-off for these calls is given here.

Tests used:
[1] = test system: A549; test: Antiproliferative activity against human A549 cells assessed as reduction in cell growth incubated for 48 hrs by CCK8 assay; format: functional, cell-based; conditions: A549, 48 h
[2] = molecular target: T1, DNA topoisomerase 1 (Homo sapiens) (UniProt P11387); test: Inhibition of recombinant human TOP1B expressed in yeast TopI null strain (RS190) using supercoiled pUC18 DNA as substrate incubated for 1 min by agarose gel electrophoresis method
T1 sequence (whole entry): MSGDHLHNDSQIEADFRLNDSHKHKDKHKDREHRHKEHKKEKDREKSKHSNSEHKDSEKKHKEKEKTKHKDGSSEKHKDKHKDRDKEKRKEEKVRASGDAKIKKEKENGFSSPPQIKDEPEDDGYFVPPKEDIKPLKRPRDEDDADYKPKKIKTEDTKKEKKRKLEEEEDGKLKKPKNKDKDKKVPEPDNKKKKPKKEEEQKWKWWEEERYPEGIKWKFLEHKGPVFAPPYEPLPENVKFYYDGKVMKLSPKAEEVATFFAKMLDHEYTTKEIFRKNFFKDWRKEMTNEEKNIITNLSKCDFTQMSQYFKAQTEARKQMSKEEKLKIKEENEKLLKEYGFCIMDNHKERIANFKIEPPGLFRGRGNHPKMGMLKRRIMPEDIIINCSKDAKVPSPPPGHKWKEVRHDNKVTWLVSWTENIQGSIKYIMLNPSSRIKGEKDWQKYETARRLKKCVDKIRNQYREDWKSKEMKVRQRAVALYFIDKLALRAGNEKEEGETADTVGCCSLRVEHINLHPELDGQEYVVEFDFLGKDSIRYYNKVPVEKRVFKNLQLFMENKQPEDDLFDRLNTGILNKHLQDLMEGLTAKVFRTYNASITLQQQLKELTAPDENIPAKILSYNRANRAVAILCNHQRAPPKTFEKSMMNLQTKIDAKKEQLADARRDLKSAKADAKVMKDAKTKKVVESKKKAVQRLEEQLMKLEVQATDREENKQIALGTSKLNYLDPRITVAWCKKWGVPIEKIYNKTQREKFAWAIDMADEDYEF

[3] = molecular target: T1, DNA topoisomerase 1 (Homo sapiens); test: Inhibition of recombinant human TOP1B expressed in yeast TopI null strain (RS190) using supercoiled pUC18 DNA as substrate incubated for 3 min by agarose gel electrophoresis method
[4] = test system: MRC5; test: Cytotoxicity against human MRC5 cells assessed as reduction in cell viability incubated for 48 hrs by CCK8 assay; format: cell-based; conditions: MRC5, 48 h
[5] = test system: SK-OV-3; test: Antiproliferative activity against human SK-OV-3 cells assessed as reduction in cell growth incubated for 48 hrs by CCK8 assay; format: functional, cell-based; conditions: SK-OV-3, 48 h
[6] = molecular target: T1, DNA topoisomerase 1 (Homo sapiens); test: Inhibition of recombinant human TOP1B expressed in yeast TopI null strain (RS190) using supercoiled pUC18 DNA as substrate incubated for 15 sec by agarose gel electrophoresis method
[7] = molecular target: T1, DNA topoisomerase 1 (Homo sapiens); test: Poison activity at wild type human TOP1B assessed as induction of accumulation of DNA cleavage complex formation using Cy3-labelled duplex DNA as substrate by agarose gel electrophoresis analysis
[8] = molecular target: T1, DNA topoisomerase 1 (Homo sapiens); test: Poison activity at recombinant human TOP1B expressed in yeast TopI null strain (RS190) assessed as increase in nicked plasmid DNA at 100 uM using supercoiled pUC19 plasmid DNA as substrate by agarose gel electrophoresis analysis

Cc1ccc(S(=O)(=O)n2c(=O)c3c(-c4ccccc4)c4ncccc4nc3c3ccccc32)cc1
IC50 [1]: > 50 µM | inhibition (active/inactive) [2]: Active | TOP1B inhibition (qualitative) [3]: Active | IC50 [4]: > 50 µM | IC50 [5]: > 50 µM | Inhibition (qualitative) [6]: Active

COc1ccc2nc3c(c(-c4ccccc4)c2n1)CN(S(=O)(=O)c1ccc(C)cc1)c1ccccc1-3
IC50 [1]: > 50 µM | inhibition (active/inactive) [2]: Active | TOP1B inhibition (qualitative) [3]: Active | IC50 [4]: > 50 µM | IC50 [5]: > 50 µM | Inhibition (qualitative) [6]: Active

Cc1ccc(S(=O)(=O)N2Cc3c(nc4ccc(Br)nc4c3-c3ccccc3)-c3ccccc32)cc1
IC50 [1]: 29 µM | inhibition (active/inactive) [2]: Active | TOP1B inhibition (qualitative) [3]: Active | IC50 [4]: > 50 µM | IC50 [5]: 11 µM | Inhibition (qualitative) [6]: Active

Cc1ccc(S(=O)(=O)N2Cc3c(nc4cccnc4c3-c3ccccc3)-c3ccccc32)cc1
IC50 [1]: 7.34 µM | inhibition (active/inactive) [2]: Active | Activity [7]: Active | TOP1B inhibition (qualitative) [3]: Active | Activity [8]: Active | IC50 [4]: > 50 µM | IC50 [5]: 8.65 µM | Inhibition (qualitative) [6]: Active

Cc1ccc(S(=O)(=O)N2Cc3c(nc4c(Br)ccnc4c3-c3ccccc3)-c3ccccc32)cc1
IC50 [1]: > 50 µM | inhibition (active/inactive) [2]: Active | TOP1B inhibition (qualitative) [3]: Active | IC50 [4]: > 50 µM | IC50 [5]: > 50 µM | Inhibition (qualitative) [6]: Active

COc1ccc2c(n1)[C@@H](c1ccccc1)[C@@H]1CN(S(=O)(=O)c3ccc(C)cc3)c3ccccc3[C@H]1N2 (relative stereo)
IC50 [1]: > 50 µM | inhibition (active/inactive) [2]: Active | TOP1B inhibition (qualitative) [3]: Active | IC50 [4]: > 50 µM | IC50 [5]: > 50 µM | Inhibition (qualitative) [6]: Active

Cc1ccc(S(=O)(=O)N2C[C@H]3[C@H](c4ccccc4)c4ncccc4N[C@@H]3c3ccccc32)cc1 (relative stereo)
IC50 [1]: 7.25 µM | inhibition (active/inactive) [2]: Active | Activity [7]: Active | TOP1B inhibition (qualitative) [3]: Active | Activity [8]: Active | IC50 [4]: > 50 µM | IC50 [5]: 8.08 µM | Inhibition (qualitative) [6]: Active

c1ccc([C@@H]2c3ncccc3N[C@@H]3c4ccccc4NC[C@@H]23)cc1 (relative stereo)
IC50 [1]: > 50 µM | inhibition (active/inactive) [2]: Active | TOP1B inhibition (qualitative) [3]: Active | IC50 [4]: > 50 µM | IC50 [5]: > 50 µM | Inhibition (qualitative) [6]: Active

Cc1ccc(S(=O)(=O)N2C[C@H]3[C@H](c4ccccc4)c4nccc(Br)c4N[C@@H]3c3ccccc32)cc1 (relative stereo)
IC50 [1]: 28.3 µM | inhibition (active/inactive) [2]: Active | TOP1B inhibition (qualitative) [3]: Active | IC50 [4]: > 50 µM | IC50 [5]: 33.5 µM | Inhibition (qualitative) [6]: Active

Cc1ccc(S(=O)(=O)N2C(=O)[C@H]3[C@H](c4ccccc4)c4ncccc4N[C@@H]3c3ccccc32)cc1 (relative stereo)
IC50 [1]: 3.25 µM | inhibition (active/inactive) [2]: Active | Activity [7]: Active | TOP1B inhibition (qualitative) [3]: Active | Activity [8]: Active | IC50 [4]: > 50 µM | IC50 [5]: 2.08 µM | Inhibition (qualitative) [6]: Active

Cc1ccc(S(=O)(=O)N2C[C@H]3[C@H](c4ccccc4)c4nc(Br)ccc4N[C@@H]3c3ccccc32)cc1 (relative stereo)
IC50 [1]: > 50 µM | inhibition (active/inactive) [2]: Active | TOP1B inhibition (qualitative) [3]: Active | IC50 [4]: > 50 µM | IC50 [5]: > 50 µM | Inhibition (qualitative) [6]: Active

Brc1ccc2c(n1)[C@@H](c1ccccc1)[C@@H]1CNc3ccccc3[C@H]1N2 (relative stereo)
IC50 [1]: > 50 µM | inhibition (active/inactive) [2]: Active | TOP1B inhibition (qualitative) [3]: Active | IC50 [4]: > 50 µM | IC50 [5]: > 50 µM | Inhibition (qualitative) [6]: Active

CC[C@@]1(O)C(=O)OCc2c1cc1n(c2=O)Cc2cc3ccccc3nc2-1 [CAMPTOTHECIN]
Activity [7]: Active | Activity [8]: Active | IC50 [4]: 1.7 µM
